# Reference: patent US20230067811A1, “MODULATING LYMPHATIC VESSELS IN NEUROLOGICAL DISEASE” (University of Virginia Patent Foundation, priority 2020, published 2023)
# System: microglia
# Assay: Single-cell RNA-seq of brain cortical myeloid cells after meningeal lymphatic ablation
# Format: in vivo, mouse
# Details: 5×FAD mice, Vis. versus Vis./photo. groups
# Description: Transcriptome of sorted live CD45^+Ly6G^negCD11b^+ cells pooled from 3 mice per group was analyzed by single-cell RNA-seq (scRNA-seq).
# J Neurosci 28, 14156-14164, (2008)). Thus, it was hypothesized that altered microglial function in mice with impaired meningeal lymphatics was contributing to decreased clearance of Aβ by anti-Abeta antibody. Single-cell RNA-seq was performed on live myeloid CD45^+Ly6G^negCD11b^+ cells sorted from the brain cortices of 5×FAD mice with intact or ablated meningeal lymphatics (FIG. 13A). After in-silico removal of undesired cell contaminants, shared nearest neighbor clustering and t-distributed stochastic neighbor embedding, four clusters of microglia were identified (FIG. 13B). […] Cell 169, 1276-1290 e1217, (2017); Krasemann, S. et al. The TREM2-APOE Pathway Drives the Transcriptional Phenotype of Dysfunctional Microglia in Neurodegenerative Diseases. Immunity 47, 566-581 e569, (2017)). Concomitantly, it was observed that there was a significant increase in cortical CD45^high cells (recruited leukocytes and/or activated microglia, FIGS. 13M-13Q) and in the levels of […] (encoded by the H2-D1 gene) in both CD45^intCD11b^+ (microglia) and CD45high CD11b^neg (recruited lymphoid cells) cells in mice with meningeal lymphatic dysfunction (FIGS. 13R-13U). […]
substance,measurement,value
verteporfin [Visudyne],frequency of microglia (% of total cells) from each cluster,similar
